Reference: PubChem BioAssay AID2060498 (Molecular Pharmacology Branch, DTP, NCI, 2025)
Where “and” joins values, the source holds several entries; their conditions need not be identical. Identical values can stand only once.

Test system: 171881-019-R-J1-PDC tumor spheroids, viability
Experiment: Anticancer human tumor 171881-019-R-J1-PDC patient-derived invasive breast carcinoma cell line growth inhibition [GQUAD]
Details: spheroids with HUVEC and MSC; for viability, T/C: stronger effect = lower value; for IC50: curve of compound
Description: DNA G-quadruplex Stabilizer Agents in Combinations in Complex Spheroids
A high-throughput screen of multi-cell type tumor spheroids was designed to identify active combinations of DNA G-quadruplex stabilizer agents and targeted small molecules. Complex spheroids include a stromal component modeled by human endothelial cells (HUVEC) and fibroblasts modeled by human mesenchymal stem cells (MSCs). The concentration ranges selected for each drug and investigational agent were based upon clinically achievable concentrations if the clinical Cmax of the agent was known.
Compounds. The drugs and investigational agents: pidnarulex (CX-5461; NSC782164), APTO-253 (NSC789042), BRACO-19 (NSC847499), peposertib (NSC802822), ceralasertib (NSC780249), elimusertib (NSC800525), camonsertib (NSC841442), AZD-1390 (NSC803789), olaparib (NSC753686), talazoparib (NSC767125), ART-558 (NSC835418), sotorasib (NSC818433), MRTX-1133 (NSC836407), SN-38 (NSC673596), topotecan (NSC609699), etoposide (NSC141540), doxorubicin (NSC123127), gemcitabine (NSC613327), 5-fluorouracil (NSC19893), paclitaxel (NSC125973), vemurafenib (NSC761431), panobinostat (NSC761190), R-306465 (JNJ-16241199; NSC773264), adavosertib (NSC754352), TP-3654 (NSC805149), carboplatin (NSC241240), KSQ-4279 (NSC840948), and staurosporine (NSC755774) were obtained from the National Cancer Institute (NCI) Developmental Therapeutics Program Chemical Repository (34). The FDA-approved anticancer drug set is available from the NCI Developmental Therapeutics Program. […] The stock solutions were prepared in dimethyl sulfoxide (DMSO, Sigma-Aldrich, St. Louis, MO, cat. D2650) at 800-fold the tested concentration and stored at -70 degrees C prior to their use. All drugs and investigational agents were tested over a range starting from a high concentration at or near the clinical Cmax and decreasing in half-log increments. If the clinical Cmax for an agent had not been determined, the highest concentration tested was 10 microM.
2.3 Cell Culture. All cells were maintained in an incubator at 37 degrees C and 5% CO2 with 95% humidity. The PDC lines were cultured according to standard operating procedures established by the NCI PDMR. All PDCs were thawed and cultured in Matrigel-coated flasks prepared with a working solution of 1X Ham's F-12 nutrient mix, without supplementation (Invitrogen, cat. 11765054), 100 U/mL penicillin-streptomycin (Invitrogen, cat. 15140122), and 2.5% Matrigel (Corning Inc., cat. 354248) for the first three passages. The 857933-349-R-J2-PDC line was cultured in 6C/Colon 1B media, which includes advanced DMEM/F-12 (Thermo Fisher Scientific, cat. 12634028), 10 mM HEPES (Thermo Fisher Scientific, cat. 15630080), 1X GlutaMAX supplement (Thermo Fisher Scientific, cat. 35050061), 0.1 mg/mL primocin (InvivoGen, cat. ant-pm-2), 10% defined fetal bovine serum, heat inactivated (HyClone Laboratories Inc., cat. SH30070.03HI), 50% L-WRN conditioned media (ATCC, cat. CRL-3276), 1.25 mM N-Acetyl-L-cysteine (Sigma-Aldrich, cat. A9165), 10 mM nicotinamide (Sigma-Aldrich, cat. N0636), 1X B-27 supplement (Thermo Fisher Scientific, cat. 17504044), 1X N-2 supplement (Thermo Fisher Scientific, cat. 17502048), 10 microM Y-27632 dihydrochloride (Tocris Bioscience, cat. 1254), and 50 ng/mL human EGF recombinant protein (Thermo Fisher Scientific, cat. PHG0311). The 485176-168-R4-J1-PDC line was cultured in Panc media, which includes all 6C/Colon 1B media components plus 100 ng/mL human FGF-10 (Thermo Fisher Scientific, cat. 100-26), 500 nM SB-431542 (Selleckchem, cat. S1067), and gastrin (Tocris, cat. 3006).
[…]
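Note: spheroids exposed to compounds for 7 days.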
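Throughout, for viability, T/C: 100% = DMSO vehicle control viability.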

Row | IC50 | SMILES | viability, T/C (compound 0.0316 µM) | viability, T/C (compound 0.1 µM) | viability, T/C (compound 0.316 µM) | viability, T/C (compound 1 µM) | viability, T/C (compound 3.16 µM) | viability, T/C (compound 10 µM)
1 | 138 nM and 241 nM and 128 nM | COc1cccc2c1C(=O)c1c(O)c3c(c(O)c1C2=O)CC(O)(C(=O)CO)CC3OC1CC(N)C(O)C(C)O1 (stereo unspecified) | 90.7% and 94.5% and 84.5% | 52% and 64.5% and 52.4% | 39.5% and 50.2% and 35.5% | 13.5% and 20% and 15% | 0.2% and 0.32% and 0.18% | 0.4% and 0.19% and 0.39%
2 | > 10000 nM | COc1ncnc(C2CC2)c1-c1ncc2cnn(Cc3ccc(-c4nc(C(F)(F)F)cn4C(C)C)cc3)c2n1 | 94% and 84.8% and 93.3% | 89.3% and 100% and 93.7% | 85.2% and 92.9% and 94% | 100% and 95.7% and 106% | 91.3% and 98.7% and 97.9% | 76.1% and 90.1% and 79.6%
3 | 1870 nM and 1890 nM and 1750 nM | CC(C)(O)C1CCC(Nc2ccc3ncc(-c4cccc(C(F)(F)F)c4)n3n2)CC1 (stereo unspecified) | 94.5% and 97.7% and 83.7% | 103% and 88.9% and 87.9% | 90% and 92.4% and 78.3% | 74.2% and 75.5% and 74.3% | 25.5% and 27.5% and 22.3% | 33.8% and 31.2% and 26.3%
